According to PubChem BioAssay (NCI):
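Growth conditions: 96-well plates. Treatment: test compound, 48 hours, 5 concentrations. Analysis: linear interpolation between bracketing concentrations; unreached endpoints set to highest concentration. GI50 marks 50% less growth. TGI: concentration producing complete growth inhibition.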

Tests used:
Assay in all cases: DTP human tumour cell line panel, 48 h
SF-268 CNS = test system: SF-268 CNS
786-0 renal = test system: 786-0 renal
RXF 393 renal = test system: RXF 393 renal
M14 melanoma = test system: M14 melanoma
MALME-3M melanoma = test system: MALME-3M melanoma
SNB-75 CNS = test system: SNB-75 CNS
HT29 colon = test system: HT29 colon
HL-60(TB) leukemia = test system: HL-60(TB) leukemia
IGROV1 ovarian = test system: IGROV1 ovarian
RPMI-8226 leukemia = test system: RPMI-8226 leukemia
OVCAR-5 ovarian = test system: OVCAR-5 ovarian
OVCAR-3 ovarian = test system: OVCAR-3 ovarian
MDA-MB-231 breast = test system: MDA-MB-231 breast
MOLT-4 leukemia = test system: MOLT-4 leukemia
SK-MEL-2 melanoma = test system: SK-MEL-2 melanoma
NCI/ADR-RES ovarian = test system: NCI/ADR-RES ovarian
DU-145 prostate = test system: DU-145 prostate
SF-295 CNS = test system: SF-295 CNS
HCT-116 colon = test system: HCT-116 colon
BT-549 breast = test system: BT-549 breast
NCI-H460 lung = test system: NCI-H460 lung
A549 NSCLC = test system: A549 NSCLC
KM12 colon = test system: KM12 colon
MCF7 breast = test system: MCF7 breast
SW-620 colon = test system: SW-620 colon
NCI-H23 lung = test system: NCI-H23 lung
HCT-15 colon = test system: HCT-15 colon
SN12C renal = test system: SN12C renal
SF-539 CNS = test system: SF-539 CNS
T-47D breast = test system: T-47D breast
OVCAR-4 ovarian = test system: OVCAR-4 ovarian
UACC-62 melanoma = test system: UACC-62 melanoma
K-562 leukemia = test system: K-562 leukemia
OVCAR-8 ovarian = test system: OVCAR-8 ovarian
COLO 205 colon = test system: COLO 205 colon
LOX IMVI melanoma = test system: LOX IMVI melanoma
HOP-62 NSCLC = test system: HOP-62 NSCLC
A498 renal = test system: A498 renal
U251 CNS = test system: U251 CNS
SK-OV-3 ovarian = test system: SK-OV-3 ovarian
UO-31 renal = test system: UO-31 renal
UACC-257 melanoma = test system: UACC-257 melanoma
CAKI-1 renal = test system: CAKI-1 renal
HS 578T breast = test system: HS 578T breast
TK-10 renal = test system: TK-10 renal
SR leukemia = test system: SR leukemia
HCC-2998 colon = test system: HCC-2998 colon
NCI-H226 lung = test system: NCI-H226 lung
SK-MEL-5 melanoma = test system: SK-MEL-5 melanoma
PC-3 prostate = test system: PC-3 prostate
NCI-H522 lung = test system: NCI-H522 lung
ACHN renal = test system: ACHN renal
SK-MEL-28 melanoma = test system: SK-MEL-28 melanoma
MDA-MB-435 = test system: MDA-MB-435
CCRF-CEM leukemia = test system: CCRF-CEM leukemia
SNB-19 CNS = test system: SNB-19 CNS

CCCCCCCCCCCCSC(=N)N
GI50 (SF-268 CNS): 7.82 µM
TGI (SF-268 CNS): 25.8 µM
GI50 (786-0 renal): 15.3 µM
TGI (786-0 renal): 33.9 µM
GI50 (RXF 393 renal): 6.64 µM
TGI (RXF 393 renal): 26.6 µM
GI50 (M14 melanoma): 5.16 µM
TGI (M14 melanoma): 17.2 µM
GI50 (MALME-3M melanoma): 15 µM
TGI (MALME-3M melanoma): 29.5 µM
GI50 (SNB-75 CNS): 16.2 µM
TGI (SNB-75 CNS): 35 µM
GI50 (HT29 colon): 2.2 µM
TGI (HT29 colon): 5.73 µM
GI50 (HL-60(TB) leukemia): 2.02 µM
TGI (HL-60(TB) leukemia): 4.27 µM
GI50 (IGROV1 ovarian): 2.77 µM
GI50 (RPMI-8226 leukemia): 2.94 µM
TGI (RPMI-8226 leukemia): 10.2 µM
GI50 (OVCAR-5 ovarian): 12.4 µM
TGI (OVCAR-5 ovarian): 25.3 µM
GI50 (OVCAR-3 ovarian): 10.3 µM
TGI (OVCAR-3 ovarian): 26.2 µM
GI50 (MDA-MB-231 breast): 2.03 µM
TGI (MDA-MB-231 breast): 8.28 µM
GI50 (MOLT-4 leukemia): 2.46 µM
TGI (MOLT-4 leukemia): 5.85 µM
GI50 (SK-MEL-2 melanoma): 19.5 µM
TGI (SK-MEL-2 melanoma): 36.2 µM
GI50 (NCI/ADR-RES ovarian): 10.5 µM
TGI (NCI/ADR-RES ovarian): 26.3 µM
GI50 (DU-145 prostate): 8.98 µM
TGI (DU-145 prostate): 23 µM
GI50 (SF-295 CNS): 2.35 µM
TGI (SF-295 CNS): 5.55 µM
GI50 (HCT-116 colon): 3.86 µM
TGI (HCT-116 colon): 14.9 µM
GI50 (BT-549 breast): 18.9 µM
TGI (BT-549 breast): 47.1 µM
GI50 (NCI-H460 lung): 3.42 µM
TGI (NCI-H460 lung): 13.4 µM
GI50 (A549 NSCLC): 12.9 µM
TGI (A549 NSCLC): 29.5 µM
GI50 (KM12 colon): 3.33 µM
TGI (KM12 colon): 11.3 µM
GI50 (MCF7 breast): 3.44 µM
TGI (MCF7 breast): 15.5 µM
GI50 (SW-620 colon): 2.73 µM
TGI (SW-620 colon): 8.14 µM
GI50 (NCI-H23 lung): 16.3 µM
TGI (NCI-H23 lung): 32.8 µM
GI50 (HCT-15 colon): 2.96 µM
TGI (HCT-15 colon): 11.5 µM
GI50 (SN12C renal): 8.21 µM
TGI (SN12C renal): 21.4 µM
GI50 (SF-539 CNS): 15.2 µM
TGI (SF-539 CNS): 32 µM
GI50 (T-47D breast): 2.03 µM
TGI (T-47D breast): 4.34 µM
GI50 (OVCAR-4 ovarian): 7.93 µM
TGI (OVCAR-4 ovarian): 27.9 µM
GI50 (UACC-62 melanoma): 15.7 µM
TGI (UACC-62 melanoma): 31 µM
GI50 (K-562 leukemia): 2.01 µM
TGI (K-562 leukemia): 4.64 µM
GI50 (OVCAR-8 ovarian): 5.77 µM
TGI (OVCAR-8 ovarian): 23.4 µM
GI50 (COLO 205 colon): 1.98 µM
TGI (COLO 205 colon): 3.72 µM
GI50 (LOX IMVI melanoma): 3.58 µM
TGI (LOX IMVI melanoma): 13.3 µM
GI50 (HOP-62 NSCLC): 10.7 µM
TGI (HOP-62 NSCLC): 28.9 µM
GI50 (A498 renal): 15.3 µM
TGI (A498 renal): 31.4 µM
GI50 (U251 CNS): 2.64 µM
TGI (U251 CNS): 8.74 µM
GI50 (SK-OV-3 ovarian): 17.4 µM
TGI (SK-OV-3 ovarian): 33.5 µM
GI50 (UO-31 renal): 5.71 µM
TGI (UO-31 renal): 19.8 µM
GI50 (UACC-257 melanoma): 13.8 µM
TGI (UACC-257 melanoma): 27.3 µM
GI50 (CAKI-1 renal): 3.79 µM
TGI (CAKI-1 renal): 14.4 µM
GI50 (HS 578T breast): 17.3 µM
TGI (HS 578T breast): 38.8 µM
GI50 (TK-10 renal): 16.4 µM
TGI (TK-10 renal): 32.3 µM
GI50 (SR leukemia): 1.79 µM
TGI (SR leukemia): 4.4 µM
GI50 (HCC-2998 colon): 2.31 µM
TGI (HCC-2998 colon): 5.62 µM
GI50 (NCI-H226 lung): 18.5 µM
TGI (NCI-H226 lung): 44.5 µM
GI50 (SK-MEL-5 melanoma): 12.6 µM
TGI (SK-MEL-5 melanoma): 28.2 µM
GI50 (PC-3 prostate): 9.13 µM
TGI (PC-3 prostate): 23 µM
GI50 (NCI-H522 lung): 5.21 µM
TGI (NCI-H522 lung): 21.6 µM
GI50 (ACHN renal): 3.89 µM
TGI (ACHN renal): 15.9 µM
GI50 (SK-MEL-28 melanoma): 13.7 µM
TGI (SK-MEL-28 melanoma): 27.9 µM
GI50 (MDA-MB-435): 3.9 µM
TGI (MDA-MB-435): 15.3 µM
GI50 (CCRF-CEM leukemia): 8.4 µM
TGI (CCRF-CEM leukemia): 26.1 µM
GI50 (SNB-19 CNS): 15.7 µM
TGI (SNB-19 CNS): 45.7 µM
